# Experimental data reported in patent US9790221B2, “Heteroaryl compounds as IRAK inhibitors and uses thereof” (Merck Patent GmbH, priority 2014, dated 2017).
# Structures can show the parent of a compound that is named as a salt.
# How the values were obtained:
# [1] = target: IRAK4 (Homo sapiens (Human), UniProt Q9NWZ3); assay: IRAK4 enzymatic assay; format: biochemical
# How it was run: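 Radiometric streptavidin FlashPlate read: 3 h, 30° C incubation of His-TEV-IRAK4 (20 ng/well), STK1-biotin substrate (300 nM) and ATP (2 μM, [^33P]-labelled) in Hepes pH 7.0, MgCl2 10 mM, MnCl2 5 mM. Compounds from 20 µM down to 1 nM, 2% DMSO controls; reaction quenched with EDTA.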
# [2] = target: IRAK1 (His-TEV-IRAK1 (194-712)) (Homo sapiens (Human), UniProt P51617); assay: IRAK1 enzymatic assay; format: biochemical
# IRAK1 (His-TEV-IRAK1 (194-712)), sequence (P51617 194-712): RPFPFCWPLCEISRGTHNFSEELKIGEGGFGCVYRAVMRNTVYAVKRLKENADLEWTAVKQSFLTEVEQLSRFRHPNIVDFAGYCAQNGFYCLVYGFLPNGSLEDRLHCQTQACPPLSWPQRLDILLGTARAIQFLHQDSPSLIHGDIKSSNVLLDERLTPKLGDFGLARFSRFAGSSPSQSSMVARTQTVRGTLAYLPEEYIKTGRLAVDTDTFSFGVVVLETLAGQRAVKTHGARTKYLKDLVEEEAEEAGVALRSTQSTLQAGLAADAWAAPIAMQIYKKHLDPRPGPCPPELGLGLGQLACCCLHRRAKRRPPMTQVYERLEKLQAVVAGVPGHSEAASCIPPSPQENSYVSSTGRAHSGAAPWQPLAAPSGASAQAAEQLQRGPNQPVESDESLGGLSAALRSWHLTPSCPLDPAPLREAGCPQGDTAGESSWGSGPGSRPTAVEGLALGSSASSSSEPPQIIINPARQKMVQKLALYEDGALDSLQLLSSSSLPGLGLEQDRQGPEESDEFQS
# How it was run: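 Compounds ([…] down to 1 nM) were incubated 3 h at 30° C with His-TEV-IRAK1 (194-712, 15 ng/well) and 1 μM [33P]-labelled ATP in 50 mM Hepes pH 7.0, 10 mM MgCl2. After EDTA stop and washing, the retained autophosphorylation signal was measured by scintillation in streptavidin-coated plates.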
# [3] = tested on: TLR7 induced IL-6 secretion in human mononuclear cells (PBMC's); assay: TLR7 induced IL-6 in human PBMC's; format: cell-based; details: Homo sapiens, PBMC, read-out: TLR7 induced IL-6 secretion in hPBMC's (IC50)
# Experimental: TLR7 Induced IL-6 in Human PBMC's
# Human PBMC assay was used as one of the functional assay a to monitor the activity of IRAK1 and IRAK4 small molecule inhibitors on TLR7 induced IL-6 secretion in human mononuclear cells (PBMC's). Human PBMCs were prepared from buffy coats (whole blood enriched with leukocytes and platelets) obtained from healthy volunteers used either fresh or frozen are plated in assay media (RPMI+2% P/S/L-glu+10% HI-FBS) and pre-treated with compounds in DMSO/media (range of concentrations from 25 uM to 0.4 nM) or controls (0.25% DMSO) for 30 minutes at 37° C. in assay media. Following pre-treatment with IRAK1 and IRAK4 inhibitors, PBMC's were stimulated with TLR7 specific ligand (2 uM) overnight (16-18 hrs) at 37° C. After incubation supernatant was transferred to 384 well PE AlphaPlate-384 (6005350) and IL-6 is quantified using Perkin Elmer IL-6 Alpha LISA kit (AL223C). Plates were read on an Envision® plate reader with Alpha Technology®.
# IRAK4, sequence (Q9NWZ3 whole entry): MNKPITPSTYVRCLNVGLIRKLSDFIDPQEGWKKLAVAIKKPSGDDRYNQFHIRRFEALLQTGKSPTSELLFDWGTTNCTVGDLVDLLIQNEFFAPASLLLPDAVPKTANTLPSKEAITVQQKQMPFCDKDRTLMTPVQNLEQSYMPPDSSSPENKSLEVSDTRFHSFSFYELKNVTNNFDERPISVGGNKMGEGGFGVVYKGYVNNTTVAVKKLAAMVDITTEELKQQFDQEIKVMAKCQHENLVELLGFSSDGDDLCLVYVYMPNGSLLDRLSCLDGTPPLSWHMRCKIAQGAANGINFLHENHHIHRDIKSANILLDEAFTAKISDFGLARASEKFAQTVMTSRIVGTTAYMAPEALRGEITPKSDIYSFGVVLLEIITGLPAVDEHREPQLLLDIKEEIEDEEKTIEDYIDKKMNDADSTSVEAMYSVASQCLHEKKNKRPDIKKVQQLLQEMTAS
Compound,IC50 [1] [nM],IC50 [2] [nM],IC50 [3] [nM]
Cn1cc(-c2cccc(-c3ncc(-c4cnn(C)c4)c(NCC4CCNC(=O)C4)n3)c2)cn1 (stereo not drawn) [Example 76],100 to 1000,1000 to 5000,> 5000
Cn1cc(-c2cccc(-c3ncc(-c4cnn(C)c4)c(N[C@H]4CC[C@H](C(=O)O)CC4)n3)c2)cn1 [Example 279],100 to 1000,> 5000,> 5000
CC(=O)NCCNc1nc(-c2cccc(-c3cnn(C)c3)c2)ncc1-c1cnn(C)c1 [Example 57],100 to 1000,100 to 1000,> 5000
Cn1cc(-c2cccc(-c3ncc(-c4cnn(C)c4)c(N[C@H]4C[C@@H](O)C4)n3)c2)cn1 [Example 46],100 to 1000,100 to 1000,> 5000
"Cn1cc(-c2cccc(-c3ncc(-c4cnn(C)c4)c(NCC4CCNCC4)n3)c2)cn1 [Example 7, {5-(1-Methyl-1H-pyrazol-4-yl)-2-[3-(1-methyl-1H-pyrazol-4-yl)-phenyl]-pyrimidin-4-yl}-piperidin-4-ylmethyl-amine]",100 to 1000,100 to 1000,1000 to 5000
"Cn1cc(-c2cccc(-c3ncc(-c4cnn(C)c4)c(OCC4(C)COC4)n3)c2)cn1 [Example 9, 4-(3-Methyl-oxetan-3-ylmethoxy)-5-(1-methyl-1H-pyrazol-4-yl)-2-[3-(1-methyl-1H-pyrazol-4-yl)-phenyl]-pyrimidine]",100 to 1000,1000 to 5000,1000 to 5000
Cn1cc(-c2cccc(-c3ncc(-c4cnn(C)c4)c(NC4CCOC4)n3)c2)cn1 (stereo not drawn) [Example 41],100 to 1000,100 to 1000,1000 to 5000
Cn1cc(-c2cccc(-c3ncc(-c4cnn(C)c4)c(NCC4(O)CCNCC4(C)C)n3)c2)cn1 (stereo not drawn) [Example 112],100 to 1000,1000 to 5000,1000 to 5000
"Cn1cc(-c2cccc(-c3ncc(-c4cnn(C)c4)c(NCC4CCOCC4)n3)c2)cn1 [Example 13, {5-(1-Methyl-1H-pyrazol-4-yl)-2-[3-(1-methyl-1H-pyrazol-4-yl)-phenyl]-pyrimidin-4-yl}-(tetrahydro-pyran-4-ylmethyl)-amine]",100 to 1000,100 to 1000,1000 to 5000
"COC(=O)c1nnc(-c2cnc(-c3cccc(-c4cnn(C)c4)c3)nc2NCC2CNC2)s1 [Example 19, 5-{4-[(Azetidin-3-ylmethyl)-amino]-2-[3-(1-methyl-1H-pyrazol-4-yl)-phenyl]-pyrimidin-5-yl}-[1,3,4]thiadiazole-2-carboxylic Acid Methyl Ester Trifluoroacetate]",100 to 1000,> 5000,1000 to 5000
"Cc1nnc(-c2cnc(-c3cccc(-c4cnn(C)c4)c3)nc2NC(C)C)s1 [Example 15, Isopropyl-[2-[3-(1-methyl-1H-pyrazol-4-yl)-phenyl]-5-(5-methyl-[1,3,4]thiadiazol-2-yl)-pyrimidin-4-yl]-amine]",< 100,100 to 1000,100 to 1000
CN(CC1(F)COC1)c1nc(-c2cccc(-c3cnn(C)c3)c2)ncc1-c1cnn(C)c1 [Example 45],100 to 1000,1000 to 5000,1000 to 5000
Cn1cc(-c2cccc(-c3ncc(-c4cnn(C)c4)c(NC4CC5(CC(N)C5)C4)n3)c2)cn1 (stereo not drawn) [Example 65],< 100,100 to 1000,100 to 1000
Cn1cc(-c2cccc(-c3ncc(-c4cnn(C)c4)c(NCC4(CO)CCC4)n3)c2)cn1 [Example 53],< 100,100 to 1000,1000 to 5000
Cn1cc(-c2cccc(-c3ncc(-c4cnn(C)c4)c(OCC4CCCO4)n3)c2)cn1 (stereo not drawn) [Example 118],< 100,1000 to 5000,1000 to 5000
"Cn1cc(-c2cccc(-c3ncc(-c4cnn(C)c4)c(N[C@@H]4CCC[C@@H](O)[C@H]4O)n3)c2)cn1 (racemic) [Example 133, (1R,2S,3R)-3-{5-(1-Methyl-1H-pyrazol-4-yl)-2-[3-(1-methyl-1H-pyrazol-4-yl)-phenyl]-pyrimidin-4-ylamino}-cyclohexane-1,2-diol]",< 100,100 to 1000,100 to 1000
Cn1cc(-c2cccc(-c3ncc(-c4ccn(C)n4)c(NC4CCOCC4)n3)c2)cn1 [Example 138],< 100,1000 to 5000,1000 to 5000
"Cn1cc(-c2cccc(-c3ncc(-c4cnn(C)c4)c(N[C@H]4C[C@@H](CNS(C)(=O)=O)C4)n3)c2)cn1 [Example 195, N-(3-{5-(1-Methyl-1H-pyrazol-4-yl)-2-[3-(1-methyl-1H-pyrazol-4-yl)-phenyl]-pyrimidin-4-ylamino}-cyclobutylmethyl)-methanesulfonamide]",< 100,< 100,1000 to 5000
Cn1cc(-c2cccc(-c3ncc(-c4cnn(C)c4)c(NC4CC5CCC4N5S(C)(=O)=O)n3)c2)cn1 (stereo not drawn) [Example 199],< 100,100 to 1000,100 to 1000
Cn1cc(-c2cccc(-c3ncc(-c4cnn(C)c4)c(NCC4(NS(C)(=O)=O)CCCCC4)n3)c2)cn1 [Example 262],< 100,100 to 1000,1000 to 5000
Cn1cc(-c2cccc(-c3ncc(-c4cnn(C)c4)c(N[C@H]4CC[C@H](O)CC4)n3)c2)cn1 [Example 149],< 100,100 to 1000,100 to 1000
Cn1cc(-c2cccc(-c3ncc(-c4cnn(C)c4)c(NCCC(C)(C)O)n3)c2)cn1 [Example 135],< 100,100 to 1000,100 to 1000
Cc1nnc(-c2cnc(-c3cccc(-c4cnn(C)c4)c3)nc2NCCN2CCS(=O)(=O)CC2)s1 [Example 127],< 100,> 5000,100 to 1000
Cn1cc(-c2cccc(-c3ncc(-c4cnn(C)c4)c(N[C@H]4CC[C@H](NS(C)(=O)=O)C4)n3)c2)cn1 [Example 190],< 100,< 100,1000 to 5000

# More lines, main results first:
IC50 [1] [nM],IC50 [2] [nM],Compound,IC50 [3] [nM]
< 100,> 5000,Cc1nnc(-c2cnc(-c3cccc(-c4cnn(C)c4)c3)nc2NC2CCC(F)(F)CC2)s1 [Example 214],1000 to 5000
< 100,100 to 1000,Cn1cc(-c2cccc(-c3ncc(-c4cnn(C)c4)c(NCCN4CCS(=O)(=O)CC4)n3)c2)cn1 [Example 55],1000 to 5000
< 100,100 to 1000,Cn1cc(-c2cccc(-c3ncc(-c4cnn(C)c4)c(NC4CCOCC4)n3)c2)cn1 [Example 137],100 to 1000
< 100,> 5000,"Cn1cc(-c2cccc(-c3ncc(-c4cnn(C)c4)c(N[C@@H]4CCCC[C@H](O)[C@@H]4O)n3)c2)cn1 [Example 289, (1S,2R,3R)-3-{5-(1-Methyl-1H-pyrazol-4-yl)-2-[3-(1-methyl-1H-pyrazol-4-yl)-phenyl]-pyrimidin-4-ylamino}-cycloheptane-1,2-diol]",100 to 1000
< 100,100 to 1000,"Cn1cc(-c2cccc(-c3ncc(-c4cnn(C)c4)c(N[C@@H]4CCCC(F)(F)[C@H]4O)n3)c2)cn1 [Example 287, (1S,6R)-2,2-Difluoro-6-{5-(1-methyl-1H-pyrazol-4-yl)-2-[3-(1-methyl-1H-pyrazol-4-yl)-phenyl]-pyrimidin-4-ylamino}-cyclohexanol]",1000 to 5000
< 100,100 to 1000,Cn1cc(-c2cccc(-c3ncc(-c4cnn(C)c4)c(NC4CCCC4O)n3)c2)cn1 (stereo not drawn) [Example 238],100 to 1000
< 100,100 to 1000,Cn1cc(-c2cccc(-c3ncc(-c4cnn(C)c4)c(NC45CC(CN)(C4)C5)n3)c2)cn1 [Example 242],100 to 1000
< 100,100 to 1000,"CC(C)Nc1nc(-c2cccc(-c3cnn(C)c3)c2)ncc1-c1nnc(C(=O)N2CC[C@@H](O)C2)s1 [Example 16, ((R)-3-Hydroxy-pyrrolidin-1-yl)-(5-{4-isopropylamino-2-[3-(1-methyl-1H-pyrazol-4-yl)-phenyl]-pyrimidin-5-yl}-[1,3,4]thiadiazol-2-yl)-methanone]",100 to 1000
< 100,100 to 1000,Cn1cc(-c2cccc(-c3ncc(-c4cnn(C)c4)c(NC45CC(N)(C4)C5)n3)c2)cn1 [Example 269],100 to 1000
< 100,< 100,Cn1cc(-c2cccc(-c3ncc(-c4cnn(C)c4)c(NC45CCC(N)(C4)C5)n3)c2)cn1 [Example 66],100 to 1000
< 100,1000 to 5000,Cc1nnc(-c2cnc(-c3cccc(-c4cnn(C)c4)c3)nc2NC2CCS(=O)(=O)CC2)s1 [Example 243],100 to 1000
< 100,100 to 1000,Cc1nnc(-c2cnc(-c3cccc(-c4cnn(C)c4)c3)nc2N[C@H]2CC[C@@H](NS(C)(=O)=O)CC2)s1 [Example 129],100 to 1000
